Assay results from ChEMBL document CHEMBL3779807, “Synthesis and structure-activity relationship of α-keto amides as enterovirus 71 3C protease inhibitors” (Bioorg Med Chem Lett, 2016).

Experiments:
[1] = Cytotoxicity against human RD cells assessed viable cells after 24 hrs by WST-1 assay; type: cell-based
[2] = Inhibition of EV71 3C protease using NMA-IEALFQGPPK(DNP)FR as substrate preincubated for 30 mins followed by addition of substrate measured after 2 hrs by FRET assay; set-up: species or system Enterovirus A71
[3] = tested on: Enterovirus A71; experiment: Antiviral activity against EV71 pseudotype virus infected in RD cells after 24 hrs by Bright-Glo luciferase assay; type: functional, organism-based; conditions: Enterovirus A

| Compound | CC50 at 24 h [1] [µM] | IC50 [2] [µM] | EC50 [3] [µM] |
| --- | --- | --- | --- |
| CCCNC(=O)C(=O)[C@H](C[C@@H]1CCCNC1=O)NC(=O)[C@H](Cc1ccccc1)NC(=O)/C=C/c1ccccc1 | > 100 | 6.22 | 4.59 |
| O=C(/C=C/c1ccccc1)N[C@@H](Cc1ccccc1)C(=O)N[C@@H](C[C@@H]1CCCNC1=O)C(=O)C(=O)NCc1ccccc1 | > 100 | 7.83 | 5.42 |
| O=C(/C=C/c1ccccc1)N[C@@H](Cc1ccccc1)C(=O)N[C@@H](C[C@@H]1CCCNC1=O)C(=O)C(=O)NC1CCCCC1 | > 100 | 4.86 | 2.63 |
| CC(C)(C)OC(=O)N[C@@H](Cc1ccc(F)cc1)C(=O)N[C@@H](C[C@@H]1CCCNC1=O)C(=O)C(=O)NC1CC1 | > 100 | 1.78 | 1.68 |
| CC(C)NC(=O)C(=O)[C@H](C[C@@H]1CCCNC1=O)NC(=O)[C@H](Cc1ccc(F)cc1)NC(=O)/C=C/c1ccccc1 | > 100 | 1.32 | 1.12 |
| O=C(/C=C/c1ccccc1)N[C@@H](Cc1ccc(F)cc1)C(=O)N[C@@H](C[C@@H]1CCCNC1=O)C(=O)C(=O)NC1CC1 | > 100 | 1.52 | 1.55 |
| O=C(/C=C/c1ccccc1)N[C@@H](Cc1ccccc1)C(=O)N[C@@H](C[C@@H]1CCCNC1=O)C(=O)C(=O)NC1CC1 | > 100 | 3.32 | 3.57 |
| CCCNC(=O)C(=O)[C@H](C[C@@H]1CCCNC1=O)NC(=O)[C@H](Cc1ccc(F)cc1)NC(=O)/C=C/c1ccccc1 | > 100 | 1.88 | 1.08 |
| Cc1ccc(NC(=O)C(=O)[C@H](C[C@@H]2CCCNC2=O)NC(=O)[C@H](Cc2ccccc2)NC(=O)/C=C/c2ccccc2)cc1 | > 100 | > 20 | > 20 |
| CCCCCCCCCCCCNC(=O)C(=O)[C@H](C[C@@H]1CCCNC1=O)NC(=O)[C@H](Cc1ccccc1)NC(=O)/C=C/c1ccccc1 | > 100 | > 20 | > 20 |
| O=C(/C=C/c1ccccc1)N[C@@H](Cc1ccccc1)C(=O)N[C@@H](C[C@@H]1CCCNC1=O)C(=O)C(=O)NCc1ccco1 | > 100 | 6.3 | 4.5 |
| CCCCCNC(=O)C(=O)[C@H](C[C@@H]1CCCNC1=O)NC(=O)[C@H](Cc1ccccc1)NC(=O)/C=C/c1ccccc1 | > 100 | > 20 | > 20 |
| CCCCNC(=O)C(=O)[C@H](C[C@@H]1CCCNC1=O)NC(=O)[C@H](Cc1ccccc1)NC(=O)/C=C/c1ccccc1 | > 100 | 8.21 | 11.6 |
| CC(C)(C)NC(=O)C(=O)[C@H](C[C@@H]1CCCNC1=O)NC(=O)[C@H](Cc1ccccc1)NC(=O)/C=C/c1ccccc1 | > 100 | > 20 | > 20 |
| CC(C)CNC(=O)C(=O)[C@H](C[C@@H]1CCCNC1=O)NC(=O)[C@H](Cc1ccccc1)NC(=O)/C=C/c1ccccc1 | > 100 | 5.07 | 11 |
| O=C(/C=C/c1ccccc1)N[C@@H](Cc1ccc(F)cc1)C(=O)N[C@@H](C[C@@H]1CCCNC1=O)C(=O)C(=O)NC1CCCCC1 | > 100 | 3.71 | 2.78 |
| CCCCNC(=O)C(=O)[C@H](C[C@@H]1CCNC1=O)NC(=O)[C@H](Cc1ccccc1)NC(=O)/C=C/c1ccccc1 | > 100 | 17.6 | 15.5 |
| CCCCCCNC(=O)C(=O)[C@H](C[C@@H]1CCCNC1=O)NC(=O)[C@H](Cc1ccccc1)NC(=O)/C=C/c1ccccc1 | > 100 | > 20 | > 20 |
| CC(C)NC(=O)C(=O)[C@H](C[C@@H]1CCNC1=O)NC(=O)[C@H](Cc1ccccc1)NC(=O)/C=C/c1ccccc1 | > 100 | 8.75 | 6.45 |
| O=C(/C=C/c1ccccc1)N[C@@H](Cc1ccccc1)C(=O)N[C@@H](C[C@@H]1CCNC1=O)C(=O)C(=O)NC1CCCCC1 | > 100 | 12.7 | 8.12 |
| O=C(/C=C/c1ccccc1)N[C@@H](Cc1ccccc1)C(=O)N[C@@H](C[C@@H]1CCCNC1=O)C(=O)C(=O)Nc1ccccc1 | > 100 | > 20 | > 20 |
| CNC(=O)C(=O)[C@H](C[C@@H]1CCCNC1=O)NC(=O)[C@H](Cc1ccccc1)NC(=O)/C=C/c1ccccc1 | > 100 | 4.08 | 9.59 |
| O=C(/C=C/c1ccccc1)N[C@@H](Cc1ccccc1)C(=O)N[C@@H](C[C@@H]1CCNC1=O)C(=O)C(=O)Nc1ccccc1 | > 100 | > 20 | > 20 |
| CC(C)NC(=O)C(=O)[C@H](C[C@@H]1CCCNC1=O)NC(=O)[C@H](Cc1ccccc1)NC(=O)/C=C/c1ccccc1 | > 100 | 1.34 | 1.66 |
| CC(C)NC(=O)C(=O)[C@H](CC1CCCNC1=O)NC(=O)[C@H](Cc1ccc(F)cc1)NC(=O)OCc1ccccc1 (single isomer, unassigned) | > 100 | 1.42 | 1.32 |
| O=C(/C=C/c1ccccc1)NC(Cc1ccccc1)C(=O)NC(CC1CCNC1=O)C(=O)C(=O)NCc1ccccc1 (single isomer, unassigned) | > 100 | > 20 | > 20 |
| O=C(/C=C/c1ccccc1)NC(Cc1ccccc1)C(=O)NC(CC1CCCNC1=O)C(=O)C(=O)Nc1ccc([N+](=O)[O-])cc1 (single isomer, unassigned) | > 100 | > 20 | > 20 |
